Earlier results on 2 compounds are cited in patent US10314848B2, “Use of testosterone and a 5-HT1A agonist in the treatment of sexual dysfunction” (EB IP LYBRIDOS B.V., priority 2006, dated 2019).

One may read the half-life as the time needed for the level to fall by half in the phase considered.

Take `O=C(NCCN1CCN(c2cccc3c2OC[C@H](CO)O3)CC1)c1ccc(F)cc1` [flesinoxan]: the “Time to maximum plasma concentration” value (in vivo) was 1 to 2 h. Also, the half-life (single doses) is 5.5 h.
Take `CCCc1nc(C)c2c(=O)nc(-c3cc(S(=O)(=O)N4CCN(CC)CC4)ccc3OCC)[nH]n12.Cl` [vardenafil, piperazine, 1-[[3-(1,4-dihydro-5-methyl-4-oxo-7-propylimidazo[5,1-f][1,2,4]triazin-2-yl)-4-ethoxyphenyl]sulfonyl]-4-ethyl-, monohydrochloride]: the “Time to peak plasma concentration after administration” value (in vivo) was “about 1 hour”.
